Consider seven compounds from US11680082B2, “Conjugates of montelukast and peptides” (ENLITISA (SHANGHAI) PHARMACEUTICAL CO., LTD, priority 2018, dated 2023).

pIC50: −log10 of the molar value. Structures can show the parent of a compound that is named as a salt. Non-standard residues stand in square brackets, D forms with d. Residues, ends and D or L forms follow the SMILES beside them. No end group written: not given here. *: point of attachment. X2 = CC(C)(O)c1ccccc1CC[C@@H](SCC1(CC(=O)*)CC1)c1cccc(/C=C/c2ccc3ccc(Cl)cc3n2)c1; Dopa = N[C@@H](Cc1ccc(O)c(O)c1)C(=O)O; Hyp = O=C(O)[C@@H]1C[C@@H](O)CN1

In one test the target is T1, CysLTR1 (Homo sapiens, UniProt Q9Y271).
T1 construct: expressed in transfected cells; host or cells: HEK293
T1 sequence (Q9Y271 1-337): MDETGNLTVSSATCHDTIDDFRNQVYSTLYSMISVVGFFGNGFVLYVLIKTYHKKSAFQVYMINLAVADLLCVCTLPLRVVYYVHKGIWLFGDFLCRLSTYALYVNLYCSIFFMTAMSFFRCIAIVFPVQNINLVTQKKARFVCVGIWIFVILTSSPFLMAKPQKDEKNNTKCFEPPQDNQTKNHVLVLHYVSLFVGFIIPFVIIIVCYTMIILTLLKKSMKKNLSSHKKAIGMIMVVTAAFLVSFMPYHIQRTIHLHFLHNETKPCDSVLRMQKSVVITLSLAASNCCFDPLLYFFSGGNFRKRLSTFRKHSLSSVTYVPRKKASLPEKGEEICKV
The test can be described thus: In vitro CysLTR1 FLIPR antagonist test. It counts as cell-based. The note with it: CYSLTR1/HEK293 cell line, Fluo-4 calcium assay.

The subject of test [1] is bleomycin-induced lung fibrosis. Put plainly: Idiopathic pulmonary fibrosis (IPF) model in rats (bleomycin). The note with it: score, 28 days. It counts as in vivo, SD rats. As for the experimental part:
60 adult SD rats (30 male, 30 female) were purchased from Zhejiang Experimental Animal Center, China. Animals were housed at between 21 and 26° C. and at between 40 and 70% relative humidity with free access to food and water.
The rats were anaesthetized and placed on an operating table in the supine position, to expose the trachea. Bleomycin (5 mg/kg, Bleomycin Hydrochloride for Injection, Haizheng Pfizer Pharmaceutical Co., Ltd.) and saline solution were injected into the trachea through the gap between the tracheal cartilage rings.
The sham-operation group was given an equal volume of normal saline instead of bleomycin. The rats were lifted vertically immediately after administration and were rotated to allow bleomycin to evenly disperse. […]
After 28 days of administration, rats were anesthetized by intraperitoneal injection of chloral hydrate and then sacrificed. […] The lung wet weight was weighed, and the lung coefficient was calculated (lung wet weight/rat weight×1000) and are shown in Table 18 below. […]
The fixed lung tissue was embedded in paraffin and sequential 4 μm sections were stained with haematoxylin-eosin (HE) and modified Masson's trichrome. Fibrotic lung injury was assessed morphologically by semiquantitative parameters. All morphological changes were scored according to the severity of damages. […] No lesion was scored as 0. […]

A further test deals with ammonia induced cough. The test can be described thus: Antitussive experiment, ammonia induced cough method. It counts as in vivo, mice. The note with it: 10 mg/kg intragastric. As to the method:
60 mice were randomly divided into 5 groups according to their body weight: CMC-Na negative control group, dextromethorphan hydrobromide positive control group and high, medium and low doses (of Compound A, Example 1) groups. Each group contained 12 mice, 6 males and 6 females.
The test drug was administered via atomization inhalation (0.15 mL/min) for 1 min, once daily for 5 days. The positive control drug was administered once daily by intragastric administration at 10 mg/kg for 5 days.
The mice were placed in an inverted beaker 1, 2, and 4 hours after the last drug administration (either Compound A or the positive control drug). 1 mL of aqueous ammonia (25.0 to 28.0%) was placed on top of a boiling water bath and was evaporated into the beaker. The mice were stimulated by ammonia vapor for a predetermined time of 63.1, 50.1, 39.8, 31.6, 25.1, 20.0, 15.9 or 12.6 seconds. The difference in the logarithm of two adjacent stimulating times was set at 0.1, and being 1.8, 1.7, 1.6, 1.5, 1.4, 1.3, 1.2 and 1.1. The mice were then quickly moved to a bell jar. The number of coughs within 1 minute was detected with a stethoscope. Typical coughs occurring three or more times in one minute are called ‘cough’ and those occurring less than three times in one minute are ‘cough free’.
The ammonia stimulation time for the next mouse was determined according to the principle of the sequential method, i.e. if the first mouse was ‘coughing’, the next mouse was stimulated for a shorter period of time. Conversely, if the first mouse was ‘coughless’, the next mouse was stimulated for a longer period of time.
The EDT50 was defined as the ammonia stimulating time at which half mice developed a “cough” and calculated by the equation: EDT50=lg^−1c/n (c equals the […], r is the number of animals in each stimulating time group, x is the logarithm of stimulation time and n was the number of animals in each group).
Where R1=(EDT50 in treatment group/EDT50 in control group)×100%, R>130% indicates an antitussive effect. R>150% indicates a strong antitussive effect.

The subject of test [2] is full thickness skin wound. The test can be described thus: Acute wound model I. The class given is in vivo, C57BL/6 mice. The note with it: lower dose, Day 4. As for the experimental part:
6-8 weeks old male C57BL/6 mice were supplied by Changzhou Cvens Experimental Animal Co. Ltd. Prior to any experiments being conducted, mice were housed under standardized conditions (at a constant temperature or 22±2° C., with alternating 12 hour periods of light and darkness), and were fed on a standard mouse diet with water, for about a week.
General anesthesia was induced using intraperitoneal 3% chloral hydrate (Sinopharm Chemical Reagent Co., Ltd.; 1 mL/10 g of body weight). The hair on the back was shaved by a baby hair shaver and depilated with cream. The skin area was wiped and sterilized with 75% alcohol twice.
EMS skin biopsy punch (Electron Microscopy Sciences, P.O. Box 550, 1560 Industry Road, Hatfield, Pa. 19440) with an 18 mm diameter was used to make a round wound on the midline of the back. Full thickness skin was removed, and the depth reached the fascia. The wounds left open without suture.
Different drugs were administrated topically at 50 μL/wound, once daily from Day 0 to Day 7. The model group was given same amount of normal saline.
Compound B was obtained as a powder from GL Biochem, and was prepared as described in Example 2 above). Ala-Lys-Pro-Ser-Tyr-Hyp-Hyp-Thr-DOPA-Lys (Compound 2; SEQ ID No: 4) was obtained as a powder from GL Biochem, and was prepared essentially as described in Example 2 above, but without coupling montelukast at the end. […]

Test [3] has as its system full thickness skin wound. Put plainly: Acute wound model II. It counts as in vivo, C57BL/6 mice. The note with it: topical once daily Day 0 to Day 7. As to the method:
A similar experiment with essentially the same protocol to that described in Example 6 above was carried out on 6 to 8 week-old male C57BL/6 mice, EMS skin biopsy punch with a 12 mm diameter was used to make two round wounds on the midline of the back. The two circles were tangential to each other and the skin between the circles was cut along the upper and lower tangents. Scissors were used to trim the wound. The wound was an oval shape. […] The model group was given same amount of normal saline. [table]

The test system of test [4] is xylene induced ear swelling. The note with it: hydrogel 0.5 mg/g, 40 μL on right ear. As for the experimental part:
Essentially the same protocol to that described in Example 5 above was carried out on 15 healthy male BALB/c mice, using Compounds J (see Example 40 above) as test compound. The mice were randomly divided into 3 groups as described in Table 20 below, with 5 mice in each group.
All excipients were obtained from Sinopharm Chemical Reagent Co. Ltd. The gel was made up with water for injection.
Dexamethasone acetate cream (DEX cream; 5 mg of dexamethasone in 10 g of cream; Fuyuan Pharmaceutical Co. Ltd., Anhui, China) was used as a positive control. 40 μL of the various treatments drugs were applied to the right ear of each group.

Experimental for CysLTR1: 10 different concentrations were tested in duplicate for each compound.
A CYSLTR1/HEK293 cell line was used. The cells were prepared and 20 μL of the cell suspension were added to the 384-well plates (20K/well; poly-D-Lysine protein coating plate, Greiner #781946). The plate was placed at 37° C. in a 5% CO2 incubator overnight.
A probenecid in FLIPR assay buffer was prepared from the relevant starter pack (Cat. no. F10471): A 250 mM stock solution of water-soluble probenecid was prepared by adding 1 mL of Fluo-4 Direct™ calcium assay buffer to 77 mg vials containing probenecid (Component B for Cat. nos. F10471). 10 mL of Fluo-4 Direct™ calcium assay buffer and 200 μL of the 250 mM probenecid stock solution was added to one bottle of Fluo-4 Direct™ calcium reagent (Component A). This 2× Fluo-4 Direct™ calcium reagent loading solution was sufficient for two microplates. The solution was vortexed allowed to sit for 5 minutes (protected from light), to ensure that the reagent was completely dissolved. The reagent was prepared fresh each day
All of the compounds were dissolved and serially diluted in Fluo-4 Direct™ calcium assay buffer (without probenecid). […] Fluorescence was measured using the instrument settings appropriate for excitation at 494 nm and emission at 516 nm.
The data were analysed using Prism (GraphPad Software, USA) and IC50s calculated for each compound.

`C[C@H](NC(=O)CC1(CS[C@H](CCc2ccccc2C(C)(C)O)c2cccc(/C=C/c3ccc4ccc(Cl)cc4n3)c2)CC1)C(=O)N[C@@H](CCCCN)C(=O)N1CCC[C@H]1C(=O)N[C@@H](CO)C(=O)N[C@@H](Cc1ccc(O)cc1)C(=O)N1C[C@H](O)C[C@H]1C(=O)N[C@H](C(=O)N[C@@H](Cc1ccc(O)cc1)C(=O)N1C[C@H](O)C[C@H]1C(=O)N[C@@H](CCCCN)C(=O)O)[C@@H](C)O` [Compound G, Montelukast-Ala-Lys-Pro-Ser-Tyr-Hyp-Thr-Tyr-Hyp-Lys] (X2-AKPSY[Hyp]TY[Hyp]K-OH): the pIC50 on CysLTR1 (repeat of Example 38) was 7.00. Take `C=C(C)c1ccccc1CC[C@@H](SCC1(CC(=O)O)CC1)c1cccc(/C=C/c2ccc3ccc(Cl)cc3n2)c1` [montelukast styrene]: the pIC50 on CysLTR1 (Example 37) was 6.80. On to `Cc1ccc(=O)n(-c2ccccc2)c1` [pirfenidone], for which, in test [1] (collagen deposition in pulmonary interstitium), the “Masson evaluation Mean” value came out at 2.50. Moreover, the “HE evaluation Mean” value in test [1] (sum of degree of fibrosis and inflammation) amounted to 5.50. Take `COc1ccc2c(c1)[C@]13CCCC[C@@H]1[C@H](C2)N(C)CC3` [positive, dextromethorphan hydrobromide]: the EDT50/s in the test on ammonia induced cough (1 h after administration) came to 50.1 s; with ammonia induced cough (2 h after administration), 44.7 s; in the test on ammonia induced cough (4 h after administration), 41.4 s. For the same compound, the R1/% in the test on ammonia induced cough (1 h after administration) came out at 241.7%; in the test with ammonia induced cough (2 h after administration), 207.3%; with ammonia induced cough (4 h after administration), 184.8%.

Consider “Ala-Lys-Pro-Ser-Tyr-Hyp-Hyp-Thr-DOPA-Lys (AKPSY[Hyp][Hyp]T[Dopa]K; not fully specified; printed as Ala-Lys-Pro-Ser-Tyr-Hyp-Hyp-Thr-DOPA-Lys) [Compound 2]”, for which, in test [2], the “Hyp content in wound tissue” value is on record as “show effects at early stage”. With “Montelukast Styrene-Ala-Lys-Pro-pSer-Tyr-Hyp-Hyp-Thr-Tyr-Lys [Compound C]”, the unhealed wound rate entry in test [3] is listed as “comparable effects on promoting the wound healing”. With “Montelukast-Ala-Lys-Pro-Ser-Tyr-Hyp-Hyp-Thr-Tyr-Hyp-Lys [Compound J]”, the “edema caused by acute inflammation (ear swelling)” value in test [4] is given as “very good effect on eliminating the edema caused by acute inflammation”.
